Entries after “also recorded” stand apart in the source; their conditions may differ. One block for each molecule: values may come before it. Where a SMILES comes first, the peptide text is derived from it. Bridges are numbered along the chain shown (N, C = ends). Where no end group is shown, it is not given here.
Experiments:
[1] = Human serum was diluted 1:4 in Gibco RPMI 1640 media; settings: room temperature (serum incubated at 37° C. for 15 minutes prior to time course); for fragment found: up to 6 hours
PD-1/PD-L1 complex = molecular target: T1, PD-1/PD-L1 complex (Homo sapiens, UniProt Q15116); experiment: AlphaScreen (PD-1/PD-L1 AlphaLISA binding kit), PD-1/PD-L1 complex formation; settings: for Blocking of PD-1/PD-L1 complex formation: AlphaScreen, result in words; for Residual Activity: AlphaScreen PD-1/PD-L1 complex formation
T1 construct: purchased PerkinElmer AL356HV
T1 sequence (Q15116 25-170 limits assumed, one chain of several): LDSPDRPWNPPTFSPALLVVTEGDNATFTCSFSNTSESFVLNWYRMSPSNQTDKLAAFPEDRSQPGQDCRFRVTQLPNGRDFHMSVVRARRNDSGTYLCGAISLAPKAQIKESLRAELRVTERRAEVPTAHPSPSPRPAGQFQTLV
Description: Peptides were screened using the PerkinElmer PD-1/PD-L1 (human) AlphaLISA Binding Kit (Waltham, MA, USA, Cat. No. AL356HV) according to the manufacturer's instructions. […] Briefly, peptides were resuspended in assay buffer with 4% dimethyl sulfoxide (DMSO) to make 4× stock solutions of 400 μM. […] Lastly, the 4× mixture of anti-His Acceptor beads and streptavidin Donor beads were prepared in the dark. […] The plate was incubated in the dark for 90 minutes at room temperature and luminescence was measured using a Tecan Spark multimode plate reader (Männedorf, Switzerland). For data analysis, a control with beads alone was subtracted from each well for background correction. Data analysis was conducted using GraphPad Prism version 9 (La Jolla, CA, USA).

[2] = tested on: human PBMCs co-cultured with OVCAR8 cells; experiment: Co-culture of OVCAR8 cells and stimulated human PBMCs, 1:10 OVCAR8:PBMC ratio; type: cell-based; settings: for Immunosuppressive effect (reduction in TNFα/cytokines) compared with controls rPD-L1 and MN_Null: 1:10 OVCAR8:PBMC co-culture, FIG. 10D
Description: For this model, PBMCs and cancer cells were both stimulated prior to co-culture to promote expression of PD-1 and PD-L1, respectively.
OVCAR8 cells, generously provided by the Gottesman Lab (National Institutes of Health, Bethesda, MD, USA), and MDA-MB-231 cells (American Type Culture Collection, Rockville, MD, USA) were cultured in Gibco RPMI 1640 media (ThermoFisher Scientific, Cat. No. 11-875-093) supplemented with 10% Gibco fetal bovine serum (ThermoFisher Scientific, Cat. No. 10437028), and 1% penicillin/streptomycin (10,000 U/mL pen, 10 mg/mL strcp) from MilliporeSigma (Burlington, MA, USA, Cat. No. P4333). Cells were cultured at 37° C. and 5% CO2. Passage number was kept below 3 for co-culture assay. Human peripheral blood mononuclear cells were purchased frozen from […] PBMCs were thawed according to manufacturer's instructions one day before co-culture and cultured in the same media and conditions as cancer cell lines.
The next day, cells were stimulated with 100 ng/mL IFNγ and two vials of human PBMCs were thawed. On Day 3, concentrations of PBMCs and OVCAR8 cells (harvested from a control well) were measured using the QuadCount Automated Cell Counter. The concentration of PBMCs required for a 1:10 OVCAR8:PBMC ratio was calculated from the OVCAR8 concentration. PBMCs were plated on a separate 24-well plate (1 mL/well) and stimulated with 5 μg/mL of anti-CD3 and 5 μg/mL of anti-CD28 for 30 minutes before drug treatment. […] After 30 minutes, media was removed from OVCAR8 wells without treatment, and replaced with 1 mL of treated PBMCs. After 24 hours, the supernatants were collected from each well, and centrifuged at 10,000×g for 5 minutes to remove any remaining cells.
Briefly, samples from co-culture experiments with excess OVCAR8 ratios were diluted 1:10 in assay buffer, and samples from co-culture experiments with excess PBMC ratios were diluted 1:5 in assay buffer. Next, 10 μL of the diluted samples were mixed with 10 μL of an IL-2 antibody-oligonucleotide conjugate mixture and added to a 96-well working plate. Samples with excess OVCAR8 ratios were allowed to incubate overnight at 4° C. Samples with excess PBMCs were allowed to incubate for 1 hour at room temperature. Next, 80 μL of qPCR reaction mixture containing master mix and DNA ligase was added to each well. The plate was centrifuged at 2,500×g for 2 minutes. Samples were then added in triplicate (20 μL/well) to a 96-well PCR plate (ThermoFisher Scientific). PCR was run according to manufacturer's instructions using the QuantStudio 7 Pro Real-Time PCR System equipped with a 96-well, 0.2 mL block from ThermoFisher Scientific.
Remaining samples from experiments with excess PBMC ratios were analyzed using TNFα (Cat. No. 430204) ELISA MAX Deluxe Sets (BioLegend, San Diego, CA, USA) according to manufacturer's instructions. Briefly, 96-well Nunc™ MaxiSorp™ ELISA Plates (BioLegend, Cat. No. 423501) were coated with capture antibodies for TNFα and incubated overnight at 4° C. The next day, the plate was washed 4× with 1×PBS+0.05% Tween-20 (PBS-T). To block non-specific binding, 200 μL of assay dilutant buffer was added to each well and the plate was incubated at room temperature for 1 hour on a shaker. The plate was washed as before, and 100 μL of the samples or standards were added to each well in triplicate and incubated at room temperature for 2 hours on a shaker. The plate was washed 4× and 100 μL of detection antibody for TNFα was added to each well, and the plate was incubated at room temperature for 1 hour on a shaker. The plate was washed 4× and 100 μL of Avidin-HRP was added to each well, and the plate was incubated at room temperature for 30 minutes on a shaker.

[3] = human serum diluted 1:4 in RPMI, ESI-MS, 0, 6, 24, 48 hours
Description: Angiotensin I was spiked in and used for normalization.
Human serum was diluted 1:4 in Gibco RPMI 1640 media (ThermoFisher Scientific, Waltham, MA, USA, Cat. No. 11-875-093) for a total of 1 mL and incubated at 37° C. for 15 minutes prior to time course. Next, 1 μL of the peptide stock was added to warmed serum for a final concentration of […] in the master mix. The rest of the time course was performed at room temperature. For each time point, aliquots of 100 μL were removed from the master mix and added to 200 μL of 3% trifluoroacetic acid. Samples were incubated on ice for 15 minutes before centrifugation at 16,000×g for 2.5 minutes. Supernatants were transferred to a clean tube and prepared for desalting via C18 column by adding 100 μL of sample buffer (20% acetonitrile, 2% trifluoroacetic acid) to supernatants before storage at—20° C. overnight. Samples were then processed through Pierce C18 spin columns (ThermoFisher Scientific, Cat. No. 89870) according to the manufacturer's instructions. […]
For ESI-MS analysis, serum stability samples were run on an Orbitrap Exploris 480 (ThermoFisher Scientific). […] ThermoFisher's Xcalibur 4.0 Data System was used for peptide quantification. […] The samples were batch reprocessed for quantification via peak area. Peptide abundances were normalized based on Angiotensin I abundance and quantified relative to initial abundance.

[4] = molecular target: T2, biotinylated PD-1 of the PerkinElmer PD-1/PD-L1 (human) AlphaLISA Binding Kit (human, UniProt Q15116 25-167, limits assumed, biotinylated (site not stated)); experiment: AlphaScreen (PerkinElmer PD-1/PD-L1 human AlphaLISA binding kit): peptide titrated against biotinylated PD-1 and His-tagged PD-L1; readout percent activity (PD-1/PD-L1 complex formation)
T2 construct: Bought kit reagent
T2 sequence (Q15116 25-167 limits assumed): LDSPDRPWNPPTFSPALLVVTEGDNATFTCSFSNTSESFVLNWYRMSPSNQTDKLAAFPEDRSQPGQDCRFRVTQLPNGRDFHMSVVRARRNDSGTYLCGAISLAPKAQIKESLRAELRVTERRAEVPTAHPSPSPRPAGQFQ
Description: (§1) Briefly, peptides were resuspended in assay buffer with 4% dimethyl sulfoxide (DMSO) to make 4× stock solutions of 400 μM. […] Lastly, the 4× mixture of anti-His Acceptor beads and streptavidin Donor beads were prepared in the dark. Peptides were then added in duplicates of 10 μL to a white 96-well ½-AreaPlate (PerkinElmer, Cat. No. 6005560) at 7 different concentrations from 1 nM to 100 μM. […] The plate was incubated in the dark for 90 minutes at room temperature and luminescence was measured using a Tecan Spark multimode plate reader (Männedorf, Switzerland). For data analysis, a control with beads alone was subtracted from each well for background correction. Data analysis was conducted using GraphPad Prism version 9 (La Jolla, CA, USA).

[5] = molecular target: T2, biotinylated PD-1 of the PerkinElmer …; experiment: AlphaScreen (PerkinElmer PD-1/PD-L1 human AlphaLISA binding kit): peptide titrated against biotinylated PD-1 and His-tagged PD-L1; readout percent PD-1/PD-L1 binding
Description: as §1

Molecule: YRCMISYGGADYKRITV
fragment found [1]: cysteinylated peptide, major, 15 minutes; also recorded: oxidized MN 1.1, minor, time 0

Molecule: YRCMISNGGADYKRITV (Ac-YRCMISNGGADYKRITV-NH2) [SEQ ID NO. 3]
Blocking of PD-1/PD-L1 complex formation (PD-1/PD-L1 complex): mutation of Y7 is tolerated

Molecule: Pembrolizumab [reference compound]
TNFα levels ([2]; 1:10 OVCAR8:PBMC, 24 hours, ELISA, vs untreated co-culture control, FIG. 10C): did not have this effect
IL-2 levels ([2]; 1:10 OVCAR8:PBMC, 24 hours, vs untreated co-culture control, FIG. 10B): did not have this effect

Molecule: YRCMISYGGADEKRITV [SEQ ID NO. 14]
Immunosuppressive effect (reduction in TNFα/cytokines) compared with controls rPD-L1 and MN_Null ([2]; listed as MN-Null): did not show a significant reduction
Immunosuppressive effect (reduction in TNFα/cytokines) compared with controls rPD-L1 and MN_Null ([2]; listed as MN_Null): less immunosuppressive activity as compared to MN1.4; also recorded: little immunosuppressive effect

Molecule: CC[C@H](C)[C@@H]1NC(=O)[C@H](CCSC)NC(=O)[C@H](C)NC(=O)[C@H](CCCNC(=N)N)NC(=O)[C@H](Cc2ccc(O)cc2)NC(=O)[C@@H](N)CSSC[C@@H](C(=O)O)NC(=O)[C@H](C(C)C)NC(=O)[C@H]([C@@H](C)O)NC(=O)[C@H]([C@@H](C)CC)NC(=O)[C@H](CCCNC(=N)N)NC(=O)[C@H](CCCCN)NC(=O)[C@H](Cc2ccc(O)cc2)NC(=O)[C@H](CC(=O)O)NC(=O)[C@H](C)NC(=O)CNC(=O)CNC(=O)[C@H](Cc2ccc(O)cc2)NC(=O)[C@H](CO)NC1=O [SEQ ID NO. 4] (H-CYRAMISYGGADYKRITVC-OH; disulfide 1-19)
IC50 (PD-1/PD-L1 complex): < 10 µM
Degradation in serum [3]: present at very low levels after 48 hours

B1: MN 2.1 (peptide)
peptide: Ac-YRCMISNGGADYKRITV-NH2
modifications: not fully specified
notes: the text speaks of Y7Q for the computation
IC50 [5]: 17.4 µM

Molecule: CRALIAYKGADYKRIC (disulfide 1-16) [MN4.2]
IC50 (read off the curve) [4]: ~10 µM

Now from value to molecule, other results behind:

fragment found [1]: oxidized MN1.4
not cleaved ([1]; up to 48 hours): not significantly degraded at 48 hours
Molecule: NH3-CRAMISYGGADYK-(N-Me-Arg)-IC—COOH

Residual Activity (PD-1/PD-L1 complex): 62.87%
Molecule: CRALIAYKGADYKRIC (disulfide 1-16) [SEQ ID NO. 8]

Residual Activity (PD-1/PD-L1 complex): 45.77%
Molecule: CRAMISYKGADYKRIC (disulfide 1-16) [SEQ ID NO. 7]

Residual Activity (PD-1/PD-L1 complex): 82.74%
Blocking of PD-1/PD-L1 complex formation (PD-1/PD-L1 complex): lost activity
Molecule: CRAXISYGGADYKXIC (norleucine at position 4; SITE 4 Nle; DISULFID 1..16 Intra chain disulphide formation; SITE 14 N-methyl arginine) [SEQ ID NO. 6]
Blocking of PD-1/PD-L1 complex formation (PD-1/PD-L1 complex; listed as MN1.5): abolished the ability of MN1.1 to block PD-1/PD-L1 complex formation

IC50 (read off the curve) [4]: ~10 µM
Molecule: CRAMISYKGADYKRIC (disulfide 1-16) [MN 3.2]
